Experimental data published in paper PMC4307180, “Overcoming myelosuppression due to synthetic lethal toxicity for FLT3-targeted acute myeloid leukemia therapy” (eLife, 2014).

Columns and labels:
[1] = tested on: primary patient FLT3 D835 AML circulating blasts; assay: Colony-forming assay, primary patient FLT3-D835 AML blasts; assay type: cell-based, human
Text: Primary AML blood samples and/or marrow aspirates were obtained on an IRB-approved protocol at the University of California, San Francisco. Informed consent was obtained in accordance with the Declaration of Helsinki. Mononuclear cells were purified by density centrifugation (Ficoll–Paque Plus, GE Healthsciences) before cryopreservation in 10% (vol/vol) DMSO or FCS (primary ITD and D835-mutant assays, Figure 3A–C) or immediate use in assays (Normal BM and SPB, Figure 3D–F). Normal BM and stimulated peripheral blood (SPB) samples were collected from donors at the UCSF oncology/hematology division. Cells were then suspended in MethoCult methylcellulose (Stem Cell Technologies, product no. H4435 Enriched, Canada) in 15-ml Falcon tubes, vigorously vortexed, bubbles settled over 10 min. Triplicates then plated via blunt-nosed syringe (1.1 ml each) into 3-cm dishes, avoiding bubble generation, and each dish placed in a larger 10-cm dish with water trough in an incubator (37°C, 5% CO2) for 13–14 days. Colonies were counted individually using traditional microscopy. CFU and BFU types reported separately (CFU-GEMM colonies counted as one of each).

[2] = tested on: FLT3/ITD-injected zebrafish embryos; assay: Zebrafish FLT3/ITD-induced mpo+ myeloid cell expansion; assay type: in vivo, Danio rerio (zebrafish); conditions: 10 μM, 6 to 30 hpf, read at 30 hpf
Description: Figure 4. […] (N–P) Three categories of mpo transcription (N, normal; O, intermediate; P, severe) were defined based on the WISH results (three experiments). […] Scale bar equals 500 μm. Blue arrows indicate the pericardial edema, green arrows indicate tail shortening and curving, and red arrows indicate the FLT3-ITD AML mpo+ myeloid cells expansion. […] For all experiments: Zebrafish embryos were collected and kept in standard E3 medium at 28°C. Different concentrations of either drug were added to the E3 medium from 6 hr post fertilization (hpf) to 3 days post fertilization (dpf). Embryos treated with DMSO or 10 μM drug from 6 to 30 hpf were collected for mpo whole mount in situ hybridization (WISH) analysis. […] plasmid DNA containing FLT3/ITD sequence was microinjected into one-cell stage embryos, and the uninjected embryos were used as control. FLT3/ITD-injected embryos were treated with DMSO or 10 μM drug from 6 to 30 hpf.
Wild-type (WT) zebrafish were maintained under standard conditions, and embryos were staged as described ([He et al., 2014]). The study was approved by the Committee of the Use of Live Animals for Teaching and Research in The University of Hong Kong.

[3] = tested on: Ba/F3 FLT3 ITD + D835H; assay: Ba/F3 cell viability, FLT3 ITD + D835H; assay type: cell-based; conditions: Mus musculus, Ba/F3, 48 hr, ± SEM
Description: (§1) Stable Ba/F3 lines were generated by retroviral spinfection with the appropriate mutated plasmid as previously described ([Smith et al., 2012]).
(§2) Exponentially growing cells (5 × 10^3 cells per well) were plated in each well of a 96-well plate with 0.1 ml of RPMI 1640 + 10% (vol/vol) FCS containing the appropriate concentration of drug in triplicate, and cell viability was assessed after 48 hr as previously described ([Smith et al., 2012]). […] Log10-scale transformation of ratios, followed by conditional formatting using xcel spreadsheet software yielded the colored diagrams shown.
(§3) Mutations isolated in the screen were engineered into pMSCVpuroFLT3–ITD by QuikChange mutagenesis (Stratagene, La Jolla, CA) as previously described ([Smith et al., 2012]).

[4] = tested on: Ba/F3 FLT3 ITD + Y842H; assay: Ba/F3 cell viability, FLT3 ITD + Y842H; assay type: cell-based; conditions: Mus musculus, Ba/F3, 48 hr, ± SEM
Description: as §1, §2, §3

[5] = tested on: Ba/F3 FLT3 ITD + D839G; assay: Ba/F3 cell viability, FLT3 ITD + D839G; assay type: cell-based; conditions: Mus musculus, Ba/F3, 48 hr, ± SEM
Description: as §1, §2, §3

[6] = tested on: Ba/F3 FLT3 ITD + D698N; assay: Ba/F3 cell viability, FLT3 ITD + D698N; assay type: cell-based; conditions: Mus musculus, Ba/F3, 48 hr, ± SEM
Description: as §1, §2, §3

[7] = tested on: Ba/F3 FLT3 ITD + Y693C; assay: Ba/F3 cell viability, FLT3 ITD + Y693C; assay type: cell-based; conditions: Mus musculus, Ba/F3, 48 hr, ± SEM
Description: as §1, §2, §3

[8] = tested on: Ba/F3 FLT3 ITD + A848P; assay: Ba/F3 cell viability, FLT3 ITD + A848P; assay type: cell-based; conditions: Mus musculus, Ba/F3, 48 hr, ± SEM
Description: as §1, §2, §3

[9] = biological target: T1, FLT3 (Homo sapiens, UniProt P36888); assay: Reaction Biology Corp kinase assay at Km-ATP (Figure 1C), FLT3
T1 sequence (P36888 27-993): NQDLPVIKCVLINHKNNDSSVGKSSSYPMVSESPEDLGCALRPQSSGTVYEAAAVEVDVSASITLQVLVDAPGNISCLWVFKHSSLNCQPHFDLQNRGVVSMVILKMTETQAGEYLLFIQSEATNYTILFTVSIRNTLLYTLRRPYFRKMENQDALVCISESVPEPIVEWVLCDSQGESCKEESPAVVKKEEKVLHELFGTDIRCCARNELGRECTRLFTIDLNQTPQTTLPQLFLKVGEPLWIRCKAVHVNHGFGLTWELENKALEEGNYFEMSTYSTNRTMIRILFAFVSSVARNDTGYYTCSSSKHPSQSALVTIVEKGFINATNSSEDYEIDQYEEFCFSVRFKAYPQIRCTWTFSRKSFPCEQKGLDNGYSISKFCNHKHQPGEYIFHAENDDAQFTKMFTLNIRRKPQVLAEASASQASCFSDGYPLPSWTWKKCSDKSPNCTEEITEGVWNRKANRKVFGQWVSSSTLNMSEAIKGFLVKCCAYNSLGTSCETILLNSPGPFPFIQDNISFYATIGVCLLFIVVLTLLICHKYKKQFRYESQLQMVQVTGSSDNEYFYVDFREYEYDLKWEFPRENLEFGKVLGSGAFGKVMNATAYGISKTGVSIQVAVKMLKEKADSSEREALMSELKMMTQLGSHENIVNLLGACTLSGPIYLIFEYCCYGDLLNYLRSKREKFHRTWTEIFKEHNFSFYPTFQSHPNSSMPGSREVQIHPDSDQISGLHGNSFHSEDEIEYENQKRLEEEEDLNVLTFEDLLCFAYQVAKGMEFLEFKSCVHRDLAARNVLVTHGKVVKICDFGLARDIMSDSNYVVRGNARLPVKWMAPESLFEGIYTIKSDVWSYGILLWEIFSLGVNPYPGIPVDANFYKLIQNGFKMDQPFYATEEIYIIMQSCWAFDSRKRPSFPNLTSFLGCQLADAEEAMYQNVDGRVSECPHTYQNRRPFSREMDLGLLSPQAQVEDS

[10] = biological target: CSF1R (Homo sapiens, UniProt P07333); assay: Reaction Biology Corp kinase assay at Km-ATP (Figure 1C), CSF1R
CSF1R, sequence (P07333 20-972): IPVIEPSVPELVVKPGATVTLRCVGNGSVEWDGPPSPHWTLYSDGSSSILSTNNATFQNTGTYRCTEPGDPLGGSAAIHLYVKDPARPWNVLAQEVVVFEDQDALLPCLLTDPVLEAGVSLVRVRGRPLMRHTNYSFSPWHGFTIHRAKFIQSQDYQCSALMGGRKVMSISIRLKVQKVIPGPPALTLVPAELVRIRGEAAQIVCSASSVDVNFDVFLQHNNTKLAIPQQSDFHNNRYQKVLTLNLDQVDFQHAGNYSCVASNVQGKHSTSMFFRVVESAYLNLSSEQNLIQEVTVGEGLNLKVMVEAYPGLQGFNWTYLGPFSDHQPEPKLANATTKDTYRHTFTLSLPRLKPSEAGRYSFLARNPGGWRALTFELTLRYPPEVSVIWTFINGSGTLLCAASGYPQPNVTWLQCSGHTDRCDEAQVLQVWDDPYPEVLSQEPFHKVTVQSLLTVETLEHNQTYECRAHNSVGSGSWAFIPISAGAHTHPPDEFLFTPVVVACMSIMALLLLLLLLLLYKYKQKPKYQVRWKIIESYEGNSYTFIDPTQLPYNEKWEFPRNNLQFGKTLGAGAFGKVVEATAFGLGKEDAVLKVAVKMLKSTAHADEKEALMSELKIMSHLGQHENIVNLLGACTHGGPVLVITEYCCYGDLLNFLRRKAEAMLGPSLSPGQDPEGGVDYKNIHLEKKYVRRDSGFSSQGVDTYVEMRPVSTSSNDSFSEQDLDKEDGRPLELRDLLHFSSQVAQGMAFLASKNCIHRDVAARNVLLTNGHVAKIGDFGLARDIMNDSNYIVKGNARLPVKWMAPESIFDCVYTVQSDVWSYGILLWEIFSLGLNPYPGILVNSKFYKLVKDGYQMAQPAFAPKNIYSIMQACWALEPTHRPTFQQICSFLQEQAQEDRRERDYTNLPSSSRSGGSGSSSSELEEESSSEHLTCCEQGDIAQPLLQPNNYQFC

[11] = biological target: PDGFRα (Homo sapiens, UniProt P16234); assay: Reaction Biology Corp kinase assay at Km-ATP (Figure 1C), PDGFRα
PDGFRα, sequence (P16234 24-1089): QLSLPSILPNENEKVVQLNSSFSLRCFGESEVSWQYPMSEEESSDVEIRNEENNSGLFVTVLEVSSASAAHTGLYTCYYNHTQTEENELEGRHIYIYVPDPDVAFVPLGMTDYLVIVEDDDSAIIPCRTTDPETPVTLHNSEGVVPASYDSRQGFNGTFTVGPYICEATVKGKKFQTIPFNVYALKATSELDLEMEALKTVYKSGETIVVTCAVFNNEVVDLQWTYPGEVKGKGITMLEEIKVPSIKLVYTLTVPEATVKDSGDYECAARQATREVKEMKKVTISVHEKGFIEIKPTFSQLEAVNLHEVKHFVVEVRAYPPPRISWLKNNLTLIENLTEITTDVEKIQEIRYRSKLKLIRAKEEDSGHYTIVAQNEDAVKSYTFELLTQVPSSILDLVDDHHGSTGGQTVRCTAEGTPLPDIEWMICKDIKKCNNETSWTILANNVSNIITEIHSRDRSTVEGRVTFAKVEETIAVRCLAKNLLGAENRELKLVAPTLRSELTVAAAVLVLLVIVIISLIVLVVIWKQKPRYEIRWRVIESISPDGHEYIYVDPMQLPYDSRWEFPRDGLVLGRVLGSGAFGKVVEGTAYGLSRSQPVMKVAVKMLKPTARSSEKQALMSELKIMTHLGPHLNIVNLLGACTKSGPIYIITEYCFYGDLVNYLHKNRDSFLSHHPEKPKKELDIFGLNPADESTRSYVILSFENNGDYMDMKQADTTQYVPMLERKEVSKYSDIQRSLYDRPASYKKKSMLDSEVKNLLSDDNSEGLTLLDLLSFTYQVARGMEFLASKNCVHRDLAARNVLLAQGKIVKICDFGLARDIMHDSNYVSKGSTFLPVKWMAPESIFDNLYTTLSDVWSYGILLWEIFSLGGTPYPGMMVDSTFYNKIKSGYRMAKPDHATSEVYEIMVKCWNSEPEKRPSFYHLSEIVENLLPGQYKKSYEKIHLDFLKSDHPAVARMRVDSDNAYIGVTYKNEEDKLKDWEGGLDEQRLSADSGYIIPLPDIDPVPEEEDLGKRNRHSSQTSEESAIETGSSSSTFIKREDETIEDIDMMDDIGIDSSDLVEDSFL

`CC1NC(=O)c2c1c1c3ccccc3n(CCCN)c1c1[nH]c3ccccc3c21` (stereo not shown) [Star 27] was tested, and the inhibition at 1 µM ([1]; Homo sapiens, at 1000 nM, read-out: inhibition of colonies, FLT3-D835 (ITD−) blasts) was roughly 60%, the “raw colony numbers, FLT3 D835Y blasts” value ([1]; at 1,000 nM, ca. 120 for DMSO plates) was roughly 50 and the “effect on FLT3/ITD-induced mpo+ myeloid cells expansion” value [2] was “rescue of normal phenotype approaching that seen for AC220”. For the same compound, the IC50 [3] was 48 ± 29 nM, the IC50 [4] was 38 ± 24 nM and the IC50 [5] was 80 ± 41 nM. For the same compound, the IC50 [6] was 174 ± 44 nM, the IC50 [7] was 279 ± 36 nM and the IC50 [8] was 53 ± 31 nM. The IC50 [9] was less than 0.6 nM, the IC50 [10] was greater than 9880 nM and the “CSF1R/FLT3 IC50 ratio” value ([10]; ratio of Figure 1C IC50s) was > 16,500. It also gave an IC50 [11] of 931 ± 109 nM.
